Laboratory results as given in US20250339531A1, “DUX4 POLYPEPTIDES AND NUCLEIC ACIDS FOR TREATING INFLAMMATORY AND AUTOIMMUNE CONDITIONS” (Fred Hutchinson Cancer Center, priority 2021, published 2025).
“Also recorded” adds a separate entry of the source.

Experiments:
[1] = system: HLA-A, HLA-B, HLA-C, PSMB8, PSMB9, PSMB10 mRNA; test: mRNA levels of MHC-I and immunoproteasome genes (RT-PCR, RNA-seq); format: cell-based, human; conditions: MB135 cells, 50 uM, data not shown
Method: (§1) Myoblasts were transfected with either (final concentrations) 10 μM 2′,3′-cGAMP (Sigma Aldrich), 2 μg/mL poly(I:C) (Invitrogen), or 1 μg/mL 3′ppp-dsRNA RIG-I ligand (Dan Stetson Lab, UW) using Lipofectamine 2000 according to manufacturer's protocol, or were stimulated with 1000U IFNβ (PeproTech) or 200 ng/ml IFNγ (R+D Systems) by addition directly to cell culture medium. After 16 hours of immune stimulation, RNA was collected from cells using the NucleoSpin RNA Kit (Macherey-Nagel) according to manufacturer's instructions. RNA samples were quantified by nanodrop and 1 μg of RNA per sample was treated with DNase I Amplification Grade (Thermo Fisher), and then synthesized into cDNA using the Superscript IV First-Strand Synthesis System, including oligo dT primers (Invitrogen). qPCR was run in 384-well plates on an Applied Biosystems QuantStudio 6 Flex Real-Time PCR System (ABI) and analyzed in Microsoft Excel.
Total RNA was isolated using the NucleoSpin RNA kit (Machery-Nagel) or Direct-zol RNA Mini-Prep Kit (Zymo Research) according to manufacturer's instructions. RNA-seq libraries were prepared using the Illumina TruSeq RNA Sample Prep v2 Kit and sequenced using 50 bp paired-end sequencing on the Illumina NextSeq platform by the Fred Hutchinson Cancer Center Genomics Core.

[2] = system: MHC-I, PSMB8, PSMB9, and PSMB10; test: Immunoblot of IFNG-induced MHC-I and immunoproteasome protein in MB135 myoblasts treated with inhibitors; format: cell-based, human; conditions: MB135 myoblasts without DUX4 induction, agent then IFNG 16 h; 4EGI-1 at 50 uM
Method: To test if mTOR inactivation was sufficient to block MHC-I and immunoproteasome protein levels in the absence of DUX4, parental MB135 myoblasts were treated with mTOR inhibitors everolimus or Torin2. Everolimus is a second-generation rapamycin analog with binding specificity for mTORC1. […] To further validate the role of 4EBP1 in blocking MHC-I and immunoproteasome protein expression, MB135 cells were treated with 4EGI-1, a small molecule that pharmacologically mimics 4EBP function and inhibits eIF4E.
(§2) Protein samples were harvested in RIPA buffer [150 mM NaCl, 1% NP-40, 0.5% Na-deocycholate, 1% SDS, 25 mM Tris-HCl pH7.4] supplemented with protease and phosphatase inhibitor tablets (Pierce), followed by sonication in Diagenode Bioruptor. Lysate was cleared by centrifugation at 16000×g and quantified using a Pierce BCA assay (Thermo Fisher Scientific). Samples were run on NuPAGE precast polyacrylamide gels (Invitrogen) and transferred to PVDF membrane. Membranes were blocked in PBS containing 0.1% Tween-20 and 5% non-fat dry milk before overnight incubation at 4° C. with primary antibodies (see resource table for a list of antibodies used in this study). Membranes were incubated with horseradish peroxidase-conjugated secondary antibodies for 1 hour at room temperature and SuperSignal chemiluminescent substrate (Thermo Scientific) was used for detection on film with a Mini-medical 90 processor. Membranes were stripped with Restore Western Blot Stripping Buffer (Pierce).

[3] = system: eIF2-alpha, RPS6, 4EBP1, eIF4E, eEF2; test: Immunoblot of translational regulators; format: cell-based, human; conditions: parental MB135 myoblasts treated with mTOR inhibitor
Method: as §2

[4] = system: proteins that co-immunoprecipitated with DUX4-CTD constructs expressed in MB135 myoblasts; test: LC-MS of proteins co-immunoprecipitated with DUX4-CTD (Table 1) and western validation; format: binding, human; parameters: key to 4. mL1dL2 + Dox + IFNG / 4. + IFNG mix / 4. longCTD + Dox + IFNG / 3. + IFNg + Dox longCTD / 3. + Dox longCTD / 3. + IFNG longCTD: peptide-spectrum matches (PSMs) per protein; conditions: kind of count not given; for 4. mL1dL2 + Dox + IFNG: LC-MS value per protein co-immunoprecipitated with DUX4-CTD construct mL1dL2 in MB135 myoblasts
Excerpt: As an unbiased method to identify proteins that interact with the C-terminal region of DUX4, liquid chromatography mass spectroscopy (LC-MS) was used to identify proteins that co-immunoprecipitated with DUX4-CTD constructs expressed in MB135 myoblasts. In the first experiment, MB135iDUX4-CTD cells were used, either untreated, treated with doxycycline alone, or with both doxycycline and IFNG. In the second experiment, MB135iDUX4-CTD and MB135iDUX4mL1dL2 cells were used, both treated with doxycycline and IFNG, compared to these two cell lines untreated and combined as a control. Proteins with a minimum of 2 peptide spectrum matches (PSMs) in at least one sample that were identified in both experiments were assigned to one of ten categories (see Methods) to separate candidate interactors from other categories that might be co-purified because of obligate interactions (e.g., proteasome or ribosome) or might be less likely to be physiologically relevant (e.g., cytoskeletal proteins). Candidate interactors were then ranked based on the total PSMs for that protein across all samples.
Centrifugation at 2500 rcf at 4° C. for 5 min pelleted the nuclei, supernatant was discarded, and nuclei resuspended in 1 mL IP buffer pH 7.4 (25 mM Tris-HCl pH 7.5, 175 mM NaCl, 1 mM EDTA, 0.2% NP-40, 5% glycerol) and incubated for 1 hour at 4° C. with rotation then spun at 21000 rcf for 10 minutes at 4° C. to pellet insoluble debris. Protein concentration was determined using the Pierce BCA Protein Assay Kit (ThermoFisher, 23225). An equivalent amount of protein per sample was pre-cleared with Dynabeads Protein G (Invitrogen) bound to mouse IgG (Abcam #131368) for 1 hour at 4° C. with rotation. FLAG-tagged constructs were then immunoprecipitated with Dynabeads Protein G beads coupled to mouse anti-FLAG M2 mAb (Sigma F3165) for 3 hours at 4° C. with rotation. Beads were washed 3× with 1 mL IP buffer and eluted by adding 2× NuPage LDS Sample Buffer (Thermo Fisher, diluted from 4× with PBS) to the beads and heating for 10 minutes at 70° C.
For LC-MS, anti-FLAG immunoprecipitation was performed with beads cross-linked to the anti-FLAG antibody and the proteins competitively eluted with FLAG peptide. Eluted protein samples were electrophoresed into a NuPage 4-12% Bis-Tris gel, excised, and processed by the Fred Hutchinson Cancer Research Center Proteomics Core. Samples were reduced, alkylated, digested with trypsin, desalted, and run on the Orbitrap Eclipse Tribid Mass Spectrometer (Thermo Fisher). Proteomics data were analyzed using Proteome Discoverer 2.4 against a Uniprot human database that included common contaminants using Sequest HT and Percolator for scoring. […] Proteins that were identified in at least one sample from both independent experiments with at least 2 PSMs in one sample were assigned to one of ten categories: 1, candidates; 2, cytoskeletal associated; 3, cytoskeletal; 4, ribosome/translation associated; 5, proteasome associated; 6, membrane or extracellular; ER, golgi, or vesicle associated; 8, lipid metabolism; 9, chaperones; 10, nuclear import or nuclear membrane associated. The proteins in category 1 were further investigated for interactions with DUX4.

[5] = system: interferon-stimulated genes IFIH1, ISG20, CXCL9, and CD74; test: IFNG induction of interferon-stimulated genes, RT-qPCR in MB135 cells with doxycycline-inducible transgenes; format: cell-based, human; conditions: MB135 cells, doxycycline-induced transgene, continuous protocol, IFNG 16 h
Method: (§3) All myoblast experiments were conducted in immortalized MB135 or MB200 myoblast cell lines (isolated from a control or FSHD2 subject, respectively cultured in Ham's F-10 Nutrient Mix (Gibco) supplemented with 15% fetal bovine serum (Hyclone), 100 U/100 μg/ml penicillin/streptomycin (Gibco), 1 μM dexamethasone (Sigma), and 10 ng/ml recombinant human basic fibroblast growth factor (PeproTech). To differentiate the myoblasts to myotubes, media was changed to DMEM supplemented with 10 μg/ml insulin (Sigma) and 10 μg/ml transferrin (Sigma). Cell lines containing doxycycline-inducible transgenes were additionally cultured with 2 μg/mL puromycin (Sigma). Transgenes were induced with 1 μg/mL of doxycycline (Sigma) for 4 hours prior to other treatments for a total of 20 hrs. The Kitra-SRS cells (RRID:CVCL_YI69) were provided by Dr. H. Otani and Osaka University (Nakai et al., 2019) and were cultured in DMEM supplemented with 10% fetal bovine serum (Hyclone) and 100 U/100 μg/ml penicillin/streptomycin (Gibco). Biological replicates consisted of independent but parallel experiments, such as simultaneously stimulating three cell culture plates with IFNγ. Technical replicates consisted of repeat measurements of the same biological sample, such as loading the same biological sample in triplicate for analysis by RT-qPCR.
as §1

[6] = system: ZSCAN4; test: Activation of DUX4 target gene ZSCAN4, RT-qPCR; format: cell-based, human; conditions: MB135 cells ± doxycycline
Method: as §3, §1

**Q.** Which “effect on mRNA levels of MHC-I and iProteasome subunits” value [1] does the source give for O=C(O)C(Cc1ccccc1[N+](=O)[O-])=NNc1nc(-c2ccc(Cl)c(Cl)c2)cs1 (mixture of isomers) [4EGI-1] here?
**A.** had no effect on mRNA levels

**Q.** And the “effect on IFNG-induced MHC-I and immunoproteasome protein in the absence of DUX4” value (“effect … of DUX4” for short) [2]?
**A.** suppressed IFNG-induced MHC-I and immunoproteasome subunits at the protein level; also recorded: suppressed IFN-induced MHC-I and iProteasome subunits at the protein level

**Q.** Which “effect … of DUX4” value [2] does the source give for COc1ccc(C[C@H](NC(=O)[C@H](C)NC(=O)CN2CCOCC2)C(=O)N[C@@H](Cc2ccccc2)C(=O)C2(C)CO2)cc1 (stereo in doubt) [ONX-0914] here?
**A.** did not reduce IFNG-induced MHC-I levels

**Q.** Which “effect … of DUX4” value [2] does the source give for CC(C)C[C@H](NC(=O)[C@H](CCc1ccccc1)NC(=O)CN1CCOCC1)C(=O)N[C@@H](Cc1ccccc1)C(=O)N[C@@H](CC(C)C)C(=O)[C@@]1(C)CO1 [Carfilzomib] here?
**A.** abrogated the accumulation of MHC-I following IFNG treatment

**Q.** Which “phosphorylation of 4EBP1 and eIF4E” value [3] does the source give for Nc1ccc(-c2ccc3ncc4ccc(=O)n(-c5cccc(C(F)(F)F)c5)c4c3c2)cn1 [Torin2, reference compound] here?
**A.** complete hypophosphorylation of 4EBP1 and reduced eIF4E phosphorylation

**Q.** What about the “phosphorylation of RPS6” value [3] of the same compound?
**A.** blocked phosphorylation of RPS6

**Q.** What about the “effect … of DUX4” value [2] of the same compound?
**A.** sufficient to post-transcriptionally repress IFNG-induced MHC-I, PSMB8, PSMB9, and PSMB10 protein expression

**Q.** What does the source list for CO[C@H]1C[C@@H]2CC[C@@H](C)[C@@](O)(O2)C(=O)C(=O)N2CCCC[C@H]2C(=O)O[C@H]([C@H](C)C[C@@H]2CC[C@@H](OCCO)[C@H](OC)C2)CC(=O)[C@H](C)/C=C(\C)[C@@H](O)[C@@H](OC)C(=O)[C@H](C)C[C@H](C)/C=C/C=C/C=C/1C [everolimus, reference compound]?
**A.** phosphorylation of 4EBP1 and eIF4E [3]: 4EBP1 phosphorylation and eIF4E phosphorylation remained largely unaltered; phosphorylation of RPS6 [3]: blocked S6K phosphorylation of RPS6; effect on IFNG-induced MHC-I and immunoproteasome protein in the absence of DUX4 [2]: did not block MHC-I or immunoproteasome protein expression

**Q.** With USP9X as the compound, how does the “4. mL1dL2 + Dox + IFNG” value [4] read?
**A.** 7

**Q.** How did the “4. + IFNG mix” value ([4]; LC-MS value per protein co-immunoprecipitated from MB135 myoblasts, + IFNG mix sample (no Dox)) turn out when VIM was run?
**A.** 66

**Q.** And the “4. mL1dL2 + Dox + IFNG” value [4]?
**A.** 43

**Q.** XRCC5 was tested. Which “4. mL1dL2 + Dox + IFNG” value [4] did it give?
**A.** 1

**Q.** YBX3 was tested. Which “4. mL1dL2 + Dox + IFNG” value [4] did it give?
**A.** 7

**Q.** With “iDUX4dL2: DUX4 transgene deleting the second (L)LxxL(L) motif, SEQ ID NO:100 (PCGLLLDELLASPEFLQQAQPLLETEAPGELEASEEAASLEAPLSEEYRA)” as the compound, how does the “suppression of IFNG induction of ISGs (IFIH1, ISG20, CXCL9, CD74)” value [5] read?
**A.** lost the ability to suppress the panel of ISGs

**Q.** What about the “transcriptional activation of DUX4 target gene ZSCAN4” value [6] of the same compound?
**A.** failed to activate the DUX4 target ZSCAN4

**Q.** How did the “suppression of IFNG induction of ISGs (IFIH1, ISG20, CXCL9, CD74)” value [5] turn out when “iDUX4mL1: DUX4 transgene mutating the first (L)LxxL(L) motif, SEQ ID NO: 99 (PCGLLAAEAAASPEFLQQAQPLLETEAPGELEASEEAASLEAPLSEEEYRALLEEL)” was run?
**A.** partial activity, suppressing 3 of the 4 ISGs

**Q.** And the “transcriptional activation of DUX4 target gene ZSCAN4” value [6]?
**A.** failed to activate the DUX4 target ZSCAN4
